Data from BindingDB's records for doi:10.1016/S0960-894X(00)80020-7 (1993).

Key:
[1] = biological target: Thymidine kinase (Human herpesvirus 1); assay: Binding affinity against HSV-1 Thymidine kinase
[2] = biological target: Thymidine kinase (Human herpesvirus 1); assay: Inhibition of HSV-1 Thymidine kinase

SMILES | Ki [1] [µM] | IC50 [2] [µM]
Cc1cn([C@H]2C[C@H](O)[C@@H](OCCCc3ccccc3)O2)c(=O)[nH]c1=O [1-[(2R,4S,5S)-4-Hydroxy-5-(3-phenyl-propoxy)-tetrahydro-furan-2-yl]-5-methyl-1H-pyrimidine-2,4-dione] | 4.3 | 10
Cc1cn([C@H]2C[C@@H](O)[C@H](OCCCc3ccccc3)O2)c(=O)[nH]c1=O [1-[(2R,4R,5R)-4-Hydroxy-5-(3-phenyl-propoxy)-tetrahydro-furan-2-yl]-5-methyl-1H-pyrimidine-2,4-dione] | – | > 50
CCCO[C@H]1O[C@@H](n2cc(C)c(=O)[nH]c2=O)C[C@@H]1O [1-((2R,4S,5S)-4-Hydroxy-5-propoxy-tetrahydro-furan-2-yl)-5-methyl-1H-pyrimidine-2,4-dione] | – | > 50
CCO[C@@H]1O[C@@H](n2cc(C)c(=O)[nH]c2=O)C[C@H]1O [1-((2R,4R,5R)-5-Ethoxy-4-hydroxy-tetrahydro-furan-2-yl)-5-methyl-1H-pyrimidine-2,4-dione] | – | > 50
CCCO[C@@H]1O[C@@H](n2cc(C)c(=O)[nH]c2=O)C[C@H]1O [1-((2R,4R,5R)-4-Hydroxy-5-propoxy-tetrahydro-furan-2-yl)-5-methyl-1H-pyrimidine-2,4-dione] | – | > 50
C#C[C@H]1O[C@@H](n2cc(C)c(=O)[nH]c2=O)C[C@@H]1O [1-((2R,4S,5R)-5-Ethynyl-4-hydroxy-tetrahydro-furan-2-yl)-5-methyl-1H-pyrimidine-2,4-dione] | 2 | 3
Cc1cn([C@H]2C[C@@H](O)[C@H](OC(C)(C)C)O2)c(=O)[nH]c1=O [1-((2R,4R,5R)-5-tert-Butoxy-4-hydroxy-tetrahydro-furan-2-yl)-5-methyl-1H-pyrimidine-2,4-dione] | – | > 50
Cc1cn([C@H]2C[C@H](O)[C@@H](OC(C)(C)C)O2)c(=O)[nH]c1=O [1-((2R,4S,5S)-5-tert-Butoxy-4-hydroxy-tetrahydro-furan-2-yl)-5-methyl-1H-pyrimidine-2,4-dione] | – | > 50
CCO[C@H]1O[C@@H](n2cc(C)c(=O)[nH]c2=O)C[C@@H]1O [1-((2R,4S,5S)-5-Ethoxy-4-hydroxy-tetrahydro-furan-2-yl)-5-methyl-1H-pyrimidine-2,4-dione] | – | 50
